Measurements as given in patent US5208032A, “Increasing the growth of turkeys using implant of 19-nortestosterone” (Rutgers, The State University of New Jersey, priority 1992, dated 1993).

Assay: Comparison of effect on growth in castrated male White Leghorn chickens (Study IV, Table II)
Assay type: in vivo
Procedure: The single comb White Leghorn strain (Dekalb XL) of chicken (Avian Services, Frenchtown, N.J.) was used in all studies. Chicks were obtained on the day following hatch and were then maintained in a well ventilated, temperature- and humidity-controlled animal room. Chicks were housed in temperature-controlled (access to small brood chambers--32° to 35° C.), wire-floored, 5-tier brooder batteries (measuring 0.74 W×1.55 L×0.27 H m per tier) until termination of respective studies. A 12 hour light:12 hour dark photoperiod was maintained at all times within the animal room. Feed and water were available ad libitum, with a standard commercial diet (Agway; Bordentown, N.J.), chick starter mash, fed to chicks 1 to 42 days of age, and then from 43 to 84 days, grower mash was provided (manufacturer statement on ration compositions are shown in Table 2).
Excluding Study II, chicks were either castrated (Quigley, 1967) or sham-operated at 13 days of age. Prior to castration, cockerels were deprived of feed and water for 24 hours in order that the intestines may become empty and thus permit better vision into the body cavity and accessibility to testes. Birds were restrained by fastening the wings and legs with leather straps so that sufficient tension was applied to hold the bird well stretched out in a lateral recumbency (on its left side). Next, an approximate 1 inch incision was made midway between the last two ribs and a small rib spreader inserted to hold the ribs about 1/2 inch apart.
Forceps were used to remove both testicles, with the lower or left testicle removed first. The forceps were carefully worked over the testicle and so manipulated as to enclose the entire organ. It was then drawn out with a slight twisting motion. At this step, care was taken not to rupture any of the primary blood vessels. When the rib spreader was removed, and the tension on the bird released (i.e., leg and wing straps removed), the skin and thigh muscles slipped back over the incision thus affording a natural protection. No special care was necessary for surgically manipulated birds other than to puncture "air pockets" which developed under the skin due to air escaping from within the abdominal cavity before the incision between the ribs was healed.
In all studies, chicks were rank-ordered by weight, wing-banded and distributed into treatment groups of equal body weights at 14 days of age. Excluding Study I, e.g., in which male, female and castrate male comparisons were made, all control groups were implanted with 1.0-cm length cholesterol-filled Silastic polysiloxane implants (i.e., steroid surface exposure of 1.0-cm; actual length was 2.0-cm with 1/2 cm wood dowel plugs placed at each end of implant). The remaining treatment groups consisted of chicks (male, female or castrated male) implanted with either testosterone-, 5-alpha-DHT-, 5-beta-DHT-, estradiol-17-beta-, or 19-nortestosterone-filled Silastic polysiloxane implants with steriod surface exposures of either 0.3, 1.0 or 3.0 cm in length. Steroid implants were prepared by manually packing respective crystalline steroids (Steraloids; Wilton, N.H.) into Silastic Medical Grade tubing (1.57 mm i.d.; Dow Corning) (Smith et al., 1977). The amounts of steroid contained in the implants were as follows (mean±SEM of 20 randomly chosen implants, 5 for each steroid): 2.6±0.2 mg (0.3-cm), 8.9±0.4 mg (1.0-cm), and 29.2±0.7 mg 3.0-cm). At the time of group assignment, implants were placed in the subcutaneous (S.C.) layer of skin behind the neck. Supplemental steroid implants (containing doses of steroids equivalent to those of the initial implants) were implanted at 6 and 10 weeks of age, without removal of prior implants, to ensure adequate androgen replacement with increasing growth. Cage floors and fecal collection trays were checked for 2 consecutive days following each implantation session to ensure completeness of procedure. […]

[1] = 0.3-cm implant, given unsigned (decrease vs cholesterol)
[2] = 1.0-cm implant, given unsigned (decrease vs cholesterol)
[3] = 3.0-cm implant, given unsigned (decrease vs cholesterol)
[4] = 0.1-cm implant (so in the source)

| SMILES | 6-week Body Wt. (0.3-cm implant) [g] | 12-week Body Wt. (0.3-cm implant) [g] | Adipose Abdominal (0.3-cm implant) [g] | Final 12-week Shank-toe Length (0.3-cm implant) [cm] | Right Breast Muscle (0.3-cm implant) [g] | Adipose Abdominal Change [1] [%] | 6-week Body Wt. (3.0-cm implant) [g] | 12-week Body Wt. (3.0-cm implant) [g] | Adipose Abdominal (3.0-cm implant) [g] | Final 12-week Shank-toe Length (3.0-cm implant) [cm] | Right Breast Muscle (3.0-cm implant) [g] | 12-week Body Wt. Change [3] [%] | Adipose Abdominal Change [3] [%] | Final 12-week Shank-toe Length Change [3] [%] | Right Breast Muscle Change [3] [%] | other results |
| --- | --- | --- | --- | --- | --- | --- | --- | --- | --- | --- | --- | --- | --- | --- | --- | --- |
| C[C@]12CCC(=O)C[C@@H]1CC[C@@H]1[C@@H]2CC[C@]2(C)[C@@H](O)CC[C@@H]12 [5-alpha-DHT, 5-alpha-dihydrotestosterone] | 515 ± 10 | 1191 ± 26 | 10 ± 2 | 16.4 ± 0.10 | 57 ± 2 | 58.3 | 415 ± 15 | 872 ± 53 | 0.5 ± 0.2 | 13.7 ± 0.34 | 36 ± 3 | 31 | 97.9 | 19.4 | 43.8 | 12-week Body Wt. Change [1]: 6.9%; Final 12-week Shank-toe Length Change [1]: 3.5%; Right Breast Muscle Change [1]: 10.9%; 6-week Body Wt. (1.0-cm implant): 485 ± 12 g; 12-week Body Wt. (1.0-cm implant): 1140 ± 39 g; Adipose Abdominal (1.0-cm implant): 6 ± 1 g; Final 12-week Shank-toe Length (1.0-cm implant): 16.1 ± 0.24 cm; Right Breast Muscle (1.0-cm implant): 51 ± 3 g; 12-week Body Wt. Change [2]: 10.9%; Adipose Abdominal Change [2]: 75.0%; Final 12-week Shank-toe Length Change [2]: 5.3%; Right Breast Muscle Change [2]: 15.6%; 6-week Body Wt. Change [3]: 19.1% |
| C[C@]12CC[C@H]3[C@@H](CCC4=CC(=O)CC[C@@]43C)[C@@H]1CC[C@@H]2O [Testosterone, testosterone] | 501 ± 13 | 1262 ± 35 | 16 ± 2 | 17.0 ± 0.16 | 61 ± 2 | 33.3 | 505 ± 13 | 1207 ± 25 | 10 ± 3 | 16.4 ± 0.16 | 55 ± 2 | 5.6 | 58.3 | 3.5 | 14.1 | 6-week Body Wt. [4]: 503 ± 10 g; 12-week Body Wt. [4]: 1287 ± 25 g; Adipose Abdominal [4]: 15 ± 3 g; Final 12-week Shank-toe Length [4]: 16.9 ± 0.14 cm; Right Breast Muscle [4]: 61 ± 2 g; Adipose Abdominal Change (0.1-cm implant (so in the source), given unsigned (decrease vs cholesterol)): 37.5% |
